Data: article PMC3914206

Legend:
Assay type in all cases: binding
Conditions in all cases: Compound Concentration 10 µM
panel of 442 kinases [1] = target: T1, panel of 442 kinases (Homo sapiens, UniProt P04626)
T1 construct: purchased KINOMEscan
Description: (§1) We assessed the selectivity of members of this scaffold using the KINOMEscan methodology across a near comprehensive panel of 442 kinases [[18,27]].

panel of 442 kinases [2] = target: T2, panel of 442 kinases (Homo sapiens, UniProt P22607)
T2 construct: purchased KINOMEscan
T2 sequence (P22607 23-806): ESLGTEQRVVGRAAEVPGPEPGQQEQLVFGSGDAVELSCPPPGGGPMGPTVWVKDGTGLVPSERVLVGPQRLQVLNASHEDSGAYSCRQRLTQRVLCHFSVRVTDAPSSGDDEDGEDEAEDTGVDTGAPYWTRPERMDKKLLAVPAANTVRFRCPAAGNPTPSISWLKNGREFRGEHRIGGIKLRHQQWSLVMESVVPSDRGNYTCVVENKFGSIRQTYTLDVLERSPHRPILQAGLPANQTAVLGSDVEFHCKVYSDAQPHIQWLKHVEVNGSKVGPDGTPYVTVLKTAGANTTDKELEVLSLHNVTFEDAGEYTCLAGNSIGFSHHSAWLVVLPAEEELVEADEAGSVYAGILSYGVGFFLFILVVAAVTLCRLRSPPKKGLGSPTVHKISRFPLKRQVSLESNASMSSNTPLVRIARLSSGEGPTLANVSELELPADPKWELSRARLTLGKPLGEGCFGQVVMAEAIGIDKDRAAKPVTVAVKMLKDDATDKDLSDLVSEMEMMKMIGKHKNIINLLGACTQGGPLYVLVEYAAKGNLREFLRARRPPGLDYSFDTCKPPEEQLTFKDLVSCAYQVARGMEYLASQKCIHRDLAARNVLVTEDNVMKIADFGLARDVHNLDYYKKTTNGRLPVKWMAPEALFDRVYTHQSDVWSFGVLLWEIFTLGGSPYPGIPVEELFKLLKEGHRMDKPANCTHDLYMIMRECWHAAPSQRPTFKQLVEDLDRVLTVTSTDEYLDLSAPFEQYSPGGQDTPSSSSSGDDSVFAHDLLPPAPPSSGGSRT
Description: as §1

panel of 442 kinases [3] = target: T3, panel of 442 kinases (Homo sapiens, UniProt Q16566)
T3 construct: purchased KINOMEscan
T3 sequence (Q16566 1-473): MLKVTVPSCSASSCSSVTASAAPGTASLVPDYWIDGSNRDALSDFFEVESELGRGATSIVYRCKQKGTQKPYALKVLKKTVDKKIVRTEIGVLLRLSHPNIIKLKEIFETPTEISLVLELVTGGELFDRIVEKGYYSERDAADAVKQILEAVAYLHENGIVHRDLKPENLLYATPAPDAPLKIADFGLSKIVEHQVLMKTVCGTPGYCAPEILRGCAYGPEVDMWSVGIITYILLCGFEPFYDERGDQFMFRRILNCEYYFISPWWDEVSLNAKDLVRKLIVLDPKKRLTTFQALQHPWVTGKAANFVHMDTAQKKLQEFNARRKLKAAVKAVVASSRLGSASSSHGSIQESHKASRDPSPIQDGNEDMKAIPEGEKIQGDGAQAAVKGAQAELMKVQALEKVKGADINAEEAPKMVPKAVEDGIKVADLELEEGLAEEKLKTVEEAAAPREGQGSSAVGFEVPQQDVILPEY
Description: as §1

T1 sequence (P04626 23-1255): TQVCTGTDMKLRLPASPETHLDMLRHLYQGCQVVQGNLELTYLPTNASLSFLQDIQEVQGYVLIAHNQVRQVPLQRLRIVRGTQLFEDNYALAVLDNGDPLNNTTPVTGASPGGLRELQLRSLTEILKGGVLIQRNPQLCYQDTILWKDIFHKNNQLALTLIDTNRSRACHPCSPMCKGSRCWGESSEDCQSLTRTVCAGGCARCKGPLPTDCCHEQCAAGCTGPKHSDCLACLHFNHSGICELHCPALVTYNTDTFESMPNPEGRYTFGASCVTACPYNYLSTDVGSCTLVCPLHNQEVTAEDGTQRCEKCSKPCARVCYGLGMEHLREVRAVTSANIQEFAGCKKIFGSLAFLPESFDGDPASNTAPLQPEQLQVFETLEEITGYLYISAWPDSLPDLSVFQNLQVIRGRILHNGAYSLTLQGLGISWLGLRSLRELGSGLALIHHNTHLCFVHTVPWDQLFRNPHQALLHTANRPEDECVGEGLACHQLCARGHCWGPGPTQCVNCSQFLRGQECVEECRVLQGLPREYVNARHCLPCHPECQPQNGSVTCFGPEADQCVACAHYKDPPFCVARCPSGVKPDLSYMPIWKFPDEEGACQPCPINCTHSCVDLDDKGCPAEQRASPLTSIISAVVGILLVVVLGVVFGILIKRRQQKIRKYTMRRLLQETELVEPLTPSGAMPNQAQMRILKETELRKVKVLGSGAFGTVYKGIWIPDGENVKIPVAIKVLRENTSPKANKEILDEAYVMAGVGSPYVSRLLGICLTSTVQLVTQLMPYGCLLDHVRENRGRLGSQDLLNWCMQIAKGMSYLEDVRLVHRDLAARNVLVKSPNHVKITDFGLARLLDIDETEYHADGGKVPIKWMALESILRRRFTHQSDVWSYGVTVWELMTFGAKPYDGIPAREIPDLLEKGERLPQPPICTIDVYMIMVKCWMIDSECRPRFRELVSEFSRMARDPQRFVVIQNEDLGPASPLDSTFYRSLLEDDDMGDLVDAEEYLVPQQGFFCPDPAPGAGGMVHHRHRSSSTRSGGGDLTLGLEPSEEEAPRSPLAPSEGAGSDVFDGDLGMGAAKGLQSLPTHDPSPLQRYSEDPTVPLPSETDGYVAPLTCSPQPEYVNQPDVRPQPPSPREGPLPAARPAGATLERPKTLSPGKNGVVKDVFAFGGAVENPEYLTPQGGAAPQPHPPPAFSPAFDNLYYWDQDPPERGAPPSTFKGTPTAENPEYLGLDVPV

Structure (SMILES)	KINOMEscan: ERBB2 (panel of 442 kinases [1])	KINOMEscan: FGFR3 (panel of 442 kinases [2])	KINOMEscan: CAMK4 (panel of 442 kinases [3])
COc1cc(C(=O)N2CCC(N3CCN(C)CC3)CC2)ccc1Nc1ncc2c(n1)N(C1CCCC1)c1ccccc1C(=O)N2C [Compound 25, 11-cyclopentyl-2-((2-methoxy-4-(4-(4-methylpiperazin-1-yl)piperidine-1-carbonyl)phenyl)amino)-5-methyl-5H-benzo[e]pyrimido[5,4-b][1,4]diazepin-6(11H)-one]	100	88	82
CCOc1cc(C(=O)N2CCC(N3CCN(C)CC3)CC2)ccc1Nc1ncc2c(n1)N(C1CCCC1)c1ccccc1C(=O)N2C [Compound 26]	100	100	100
COc1cc(C(=O)N2CCC(N3CCN(C)CC3)CC2)ccc1Nc1ncc2c(n1)N1CCc3cccc(c31)C(=O)N2C [Compound 24]	–	80	–
COc1cc(C(=O)N2CCC(N3CCN(C)CC3)CC2)ccc1Nc1ncc2c(n1)N(C)c1ccccc1C(=O)N2C [15 (LRRK2-IN-1)]	100	80	79
